This note sets out measurements from paper PMC9519446, “Discovery of an Orally Active Benzoxaborole Prodrug Effective in the Treatment of Chagas Disease in Non-human Primates” (Nature microbiology, 2022).

Several values for one entry are separate records, joined by “and”; a condition that tells them apart may be missing. Equal values may be shown once. Entries after “also recorded” stand apart in the source; their conditions may differ. Read-outs that look alike come from different tables or passages of the source. Marks after values point to notes of the source that are not given here.

The subject of data set [1] is T. cruzi extracellular amastigotes. Put plainly: Extracellular amastigote assay (ATPlite luminescence, 48 hours). The conditions noted are these: Trypanosoma cruzi. Format: cell-based. As for the experimental part: (§1) The in vitro anti-T. cruzi amastiogote activity assay was performed and optimized based on the protocol described previously. The change in tdTomato fluorescence intensity was determined as a measurement of growth over 72 hours of culture. For assaying drug effects on extracellular amastigotes, trypomastigotes were collected from infected Vero cell cultures and converted in acidic media as previously described. Amastigotes (50,000/well) were incubated with 2-fold serial dilutions of compounds for 48 hours. The ATP production was used as an indication of growth in this case, and was measured by ATPlite Luminescence ATP Detection Assay System (PerkinElmer). Both fluorescence and luminescence were read using a BioTek Synergy Hybrid Multi-Mode reader equipped with the software Gene5 v 2.0 (BioTek). The dose-response curve was generated by […] analysis with GraphPad Prism v9.4.0 (GraphPad Software).

Data set [2] relates to T. cruzi of diverse genetic types (DTUs). The data set can be described thus: In vitro susceptibility of T. cruzi strains of diverse genetic types (DTUs). Format: cell-based. The conditions noted are these: Trypanosoma cruzi. As for the experimental part:
C57BL/6J mice were purchased from The Jackson Laboratory (Bar Harbor, ME), and B6.129S7-Ifngtm1Ts/J (IFN-gamma deficient) were bred in-house at the University of Georgia Animal Facility. The SKH-1 “hairless” mice backcrossed to C57BL/6 were a gift from Dr. Lisa DeLouise (University of Rochester). All the animals were maintained in the University of Georgia Animal Facility under specific pathogen–free conditions at 22°C, 50% humidity and in a 12:12 hs light:dark cycle. Male and female mice of 6 to 9 weeks of age were used. All mouse experiments were carried out in strict accordance with the Public Health Service Policy on Humane Care and Use of Laboratory Animals and Association for Assessment and Accreditation of Laboratory Animal Care accreditation guidelines. The protocol was approved by the University of Georgia Institutional Animal Care and Use Committee. […] Parasites genotypes were determined as previously described.
as §1

For data set [3], the system named is tdTomato expressing T. cruzi (CL strain). Put plainly: Rapid in vivo assay: footpad infection, single oral dose, fluorescence imaging 2 and 4 dpi (proliferation index).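 As to Parasite proliferation index of footpads infected with tdTomato-expressing T. cruzi: single oral dose of 50 mg/kg given at 2 dpi.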 Also noted: species or system C57BL/6 mice. Particulars: for Fluorescence intensity of the feet of mice infected with tdTomato-expressing T. cruzi: individual feet. How it is done: Fluorescent intensity of the feet was measured at 2 dpi before compound administration and at 4 dpi in the Maestro in vivo imaging system equipped with the software Maestro 2.1.0 (CRi) as previously described. The proliferation index was estimated as PI=[(T4d – T2d)/(mUnt4d-mUnt2d)]*100; where T4d and T2d are the fluorescence intensity of the feet of the treated animals at days 4 and 2 post-infection respectively; mUnt4d and mUnt2d are the average fluorescence intensity of the feet of the untreated animals at 4 and 2 dpi respectively.

Data set [4] can be described thus: NHP necropsy histology (lesions that could be consistent with Chagas). Particulars: individual treated macaques T1-T9 at necropsy. Format: in vivo, rhesus macaques (Macaca mulatta). On the set-up: key to Skel mm, lesion grade / Small Int, lesion grade / Large Int, lesion grade / Heart, lesion grade: 0 (unlikely Chagas-related pathology); 5 (likely Chagas-related pathology).

The nature of data set [5]: NHP clinical observation, physical exams and reproductive follow-up. As for the experimental part: Under light-anesthesia/sedation, peripheral blood samples were collected from each animal prior to treatment and at 7 time points following. Blood analysis (CBC and serum chemistry assays) and physical exams to evaluate the health of the study animals were performed on each animal prior to the beginning of the study and also at three time points during the treatment protocol (see Supplementary data).

In data set [6] the test system is wild-type and peptidase knockout T. cruzi epimastigotes and amastigotes. The data set can be described thus: LC-MS/MS analysis of intracellular AN15368 and AN14667 (uptake and conversion). Format: cell-based, Trypanosoma cruzi. Particulars: epimastigotes 10 uM, amastigotes 50 nM; WT vs CBP KO. As for the experimental part:
The cells were then pelleted and resuspended in 100 μL of PBS. The cell suspension was mixed with 200 μl of acetonitrile and centrifuged at 735 gfor 10 minutes at room temperature. After extraction, the supernatant was further diluted with methanol:water 30:70 (v/v) containing 0.4 nM internal standard (IS) AN14817 to a concentration within the calibration range. Each sample was diluted in triplicate to provide technical replicates and the diluted sample (10 μL) was injected for subsequent LC-MS/MS analysis.
LC-MS/MS analysis was performed on a Waters ACQUITY I-Class UPLC system coupled to a Xevo TQ-S triple quadrupole mass spectrometer. An ACQUITY UPLC BEH C18 column (130 Å, 1.7 μm, 2.1 mm x 50 mm) was used for chromatographic separation, and the column temperature was 40 °C. The mobile phase consisted of water (A) and methanol (B), both containing 0.1% (v/v) formic acid. The following gradient elution was performed at a flow rate of 0.4 mL/min: 0 – 0.5 min, 30% B; 0.5 – 3 min, 30 – 95% B; 3 – 4 min, 95% B; 4 – 4.1 min, 95 – 30% B; and 4.1 – 5 min, 30% B. The MS ionization was carried out in the positive electrospray ionization (ESI) mode with following conditions: capillary voltage = 1.50 kV; desolvation temperature = 500 °C; desolvation gas flow = 1000 L/h; and nebulizer gas pressure = 7.0 bar. […] Data were processed using TargetLynx v4.1 software (Waters).

A short description of data set [7]: High dose 7-day toxicology study with exposure.

With `Cc1c(C(=O)NC(C(=O)OCc2ccc(F)c(F)c2)C(C)C)ccc2c1B(O)OC2` (stereo not drawn) [AN14353], the IC50 in data set [1] (WT extracellular amastigotes, Fig. 2c, read-out: WT IC50) stood at 0.5 nM; in data set [1] (extracellular amastigotes, Fig. 2a, read-out: Extracellular IC50), 0.1 nM; in data set [2] (Strain 20290, DTU TcI), 3 nM; in data set [2] (Strain 20392, DTU TcIV), 5 nM; in data set [2] (Strain ARC0704, DTU TcI) it was 3 nM; in data set [2] (Strain CL, DTU TcVI) it was 6 nM. Further, the IC50 in data set [2] (Strain Colombiana, DTU TcI) worked out at 7 nM; in data set [2] (Strain M5631, DTU TcIII), 1 nM; in data set [2] (Strain Montalvania, DTU TcI), 1 nM; in data set [2] (Strain Tul8, DTU TcII), 1 nM. Besides, the IC90 came to 5 nM in data set [2] (Strain 20290, DTU TcI); 10 nM in data set [2] (Strain 20392, DTU TcIV); 7 nM in data set [2] (Strain ARC0704, DTU TcI); 18 nM in data set [2] (Strain CL, DTU TcVI); 10 nM in data set [2] (Strain Colombiana, DTU TcI); 3 nM in data set [2] (Strain M5631, DTU TcIII). For the same molecule, the IC90 in data set [2] (Strain Montalvania, DTU TcI) stood at 2 nM; in data set [2] (Strain Tul8, DTU TcII), 2 nM. The “Fluorescence intensity of the feet of mice infected with tdTomato-expressing T. cruzi” value is 1665.8 and 1203.3 and 1103.9 and 2856.3 and 2240.9 and 2906.1 and 796.9 and 2912.6 and 793.9 and 2840.0 in data set [3] (0.8 mg/kg); 1183.1 and 248.0 and 552.8 and 1244.2 and 574.1 and 807.8 and 439.5 and 1642.2 and 2070.5 and 1949.8 in data set [3] (3.2 mg/kg); 556.7 and -13.5 and -118.4 and 985.8 and 248.2 and 312.2 and -170.7 and 977.4 and 456.5 and 1102.8 in data set [3] (12.5 mg/kg); 916.6 and 1396.9 and 669.0 and 929.6 and 109.0 and 109.7 and 3.9 and 55.6 and 1126.1 and 448.9 in data set [3] (25 mg/kg); 248.7 and 316.0 and 101.3 and 60.4 and 606.3 and -64.8 and 95.6 and 476.3 and 738.5 and 600.3 in data set [3] (40 mg/kg). Further, the “Parasite proliferation index of footpads infected with tdTomato-expressing T. cruzi” value in data set [3] (Fig. 3a, individual footpads) is 1.9 and 17.1 and 45.9 and 24.7 and 19.1 and 29.9 and -18.9 and -3.0 and 31.4 and 4.1.
On to `Cc1c(C(=O)N[C@H](C(=O)OCC2CCOCC2)C(C)C)ccc2c1B(O)OC2` [AN15368], for which, in data set [4], the “Heart, lesion grade” value is 1* and 0 and 2* and 3*; the “Histology Comments” value is “Heart- mutifocal areas of mild epicarditis; also recorded: No overt pathology identified; also recorded: Sk mm- mild focal area of neutrophilic and lymphocytic inflammation Small int- prominent villar tip necrosis/apoptosis, multifocal Lrg Int- focal area of mild lymphohistiocytic inflammation in muscularis; also recorded: Heart- Multifocal areas of mild lymphohistiocytic inflammation/myofiber loss; regional area of mild-moderate myocardial fibrosis; intravascular bacterial or fungal thrombus. Heart lesions are likely related to thromus/infection but Chagas can't be ruled out; also recorded: Sk mm- Multifocal areas of mild lymphohistiocytic inflammation and myofiber loss; Lrg Int- Mild diffsue lymphoplasmactic colitis; focal area of mild lymphohistiocytic inflammation in muscularis; also recorded: Heart - multiple foci of mild lymphoctic inflammation Sk mm-one section has acute myofiber degeneration (ketamine artifact) Small int- prominent villar tip necrosis/apoptosis, multifocal; also recorded: Heart- multifocal areas of mild to moderate myocardial, subepicardial, and perivascular lymphohistiocytic and plasmacytic inflammation; regional area of mild-moderate myocardial fibrosis”; the “Large Int, lesion grade” value is 0 and 1*; the “Skel mm, lesion grade” value is 0 and 1* and 2*. Also, the “Small Int, lesion grade” value in data set [4] stood at 0. In addition, the adverse events entry in data set [5] (19 treated macaques, 60 day treatment period) is given as “No adverse events”. The “healthy and T. cruzi-seronegative infants produced” value in data set [5] (female, rhesus monkey, in vivo, 2 years) turned out to be 13. Moreover, the “accumulation and conversion to cleaved product AN14667” value in data set [6] is “conversion to the cleaved product in wild-type T. cruzi epimastigotes and amastigotes but not in the KO line”. For the same molecule, in data set [7] (7-day toxicology studies / rats), the “dose proportionality of exposure” value was “good dose proportional exposure”. Also, the “NOAEL dose translated by allometric scaling” value in data set [7] (humans) was found to be 19.4 mg/kg. The “NOAEL dose translated by allometric scaling” value in data set [7] (monkeys) was found to be 60.5 mg/kg. In data set [7] (rat, in vivo, 120 mg/kg/day, Total plasma exposure (AUC0-24 h), rats, 120 mg/kg/day (NOAEL dose)), this molecule gave an AUC(0-t) of 30 µg·h/mL. Also, in data set [7] (rat, in vivo, 600 mg/kg), the AUC came out at 256 µg·h/mL. Also, in data set [7] (rat, in vivo, oral), the NOAEL at 7 days came out at 120 mg/kg. For the same molecule, the microscopic findings result in data set [7] (rats) is recorded as “observed microscopically in liver (dose dependent), kidney”. In addition, the “effects on hematology and clinical chemistry” value in data set [7] (rats, 120 mg/kg/day or lower) is “none”. Further, in data set [7] (rats, 150 mg/kg), the “effects on hematology and clinical chemistry” value is listed as “modest effects”. Moreover, in data set [7] (rats, between the first and seventh days of the study), the drug accumulation result is on record as “no evidence of drug accumulation”.
